Patent US12037344B2, “NLRP3 modulators” (INNATE TUMOR IMMUNITY, INC., priority 2018, dated 2024)
Where two headings read alike, the source gives them in different places.

How the values were obtained:
THP-1 cells = assay: Measurement of IL-1β production, hTRF protocol (second alternative procedure), THP-1 cells; assay type: cell-based, human; conditions: Homo sapiens
Outline: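 THP-1 cells differentiated overnight with 50 ng/ml PMA, then plated at 50,000 cells/well in RPMI with 2% FBS onto serial compound dilutions (top final concentration 10 μM) for 2 hours at 37° C. Supernatant IL-1β measured by hTRF (antibodies at 1:40, overnight at 4° C), read at 665/615 nm against a standard curve.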

TLR7 = biological target: T1, TLR7 (Homo sapiens, UniProt Q9NYK1); assay: In vitro human TLR7 binding reporter assay (HEK-Blue, NF-kB/AP1-inducible SEAP); assay type: cell-based; conditions: activity range class, read-out: TLR7 Agonist EC50
T1 construct: human HEK-Blue cells co-expressing a TLR7 or TLR8 gene
T1 sequence (Q9NYK1 27-1049): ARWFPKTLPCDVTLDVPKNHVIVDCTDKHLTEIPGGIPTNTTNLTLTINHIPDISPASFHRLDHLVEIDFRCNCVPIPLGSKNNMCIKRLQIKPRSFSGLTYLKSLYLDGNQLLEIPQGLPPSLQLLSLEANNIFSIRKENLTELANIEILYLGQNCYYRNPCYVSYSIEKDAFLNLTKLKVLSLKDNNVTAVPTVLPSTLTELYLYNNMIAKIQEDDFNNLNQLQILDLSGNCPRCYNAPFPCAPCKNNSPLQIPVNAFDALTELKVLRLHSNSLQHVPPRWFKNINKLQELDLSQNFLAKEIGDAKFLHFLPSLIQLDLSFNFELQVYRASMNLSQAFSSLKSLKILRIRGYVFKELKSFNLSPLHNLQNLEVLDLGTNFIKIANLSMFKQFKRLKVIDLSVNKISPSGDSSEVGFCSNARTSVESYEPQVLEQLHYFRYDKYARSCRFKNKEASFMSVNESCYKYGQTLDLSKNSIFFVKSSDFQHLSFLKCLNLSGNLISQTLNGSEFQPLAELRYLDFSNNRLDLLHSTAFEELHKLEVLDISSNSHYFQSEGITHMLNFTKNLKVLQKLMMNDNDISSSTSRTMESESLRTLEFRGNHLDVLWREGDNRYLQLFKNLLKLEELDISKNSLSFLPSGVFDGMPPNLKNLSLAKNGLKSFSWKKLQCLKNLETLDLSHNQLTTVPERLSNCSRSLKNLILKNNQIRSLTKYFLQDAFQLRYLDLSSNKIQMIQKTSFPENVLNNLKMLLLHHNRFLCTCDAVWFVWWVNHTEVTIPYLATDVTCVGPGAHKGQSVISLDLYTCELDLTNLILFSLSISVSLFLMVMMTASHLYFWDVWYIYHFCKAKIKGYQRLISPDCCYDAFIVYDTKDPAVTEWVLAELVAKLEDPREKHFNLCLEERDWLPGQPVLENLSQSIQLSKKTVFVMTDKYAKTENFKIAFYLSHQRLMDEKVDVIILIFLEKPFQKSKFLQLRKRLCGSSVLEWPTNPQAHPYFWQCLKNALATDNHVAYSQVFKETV
Outline: (§1)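 HEK-Blue cells expressing human TLR7 or TLR8 with NF-kB/AP1-inducible SEAP reporter, plated 24 h, then compound-treated 18 h at 37° C, 5% CO2. EC50 normalized to 100% Ymax set by 50 μM reference standard.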

TLR8 = biological target: T2, TLR8 (Homo sapiens, UniProt Q9NR97); assay: In vitro human TLR8 binding reporter assay (HEK-Blue, NF-kB/AP1-inducible SEAP); assay type: cell-based; conditions: activity range class, read-out: TLR8 Agonist EC50
T2 construct: human HEK-Blue cells co-expressing a TLR7 or TLR8 gene
T2 sequence (Q9NR97 27-1041): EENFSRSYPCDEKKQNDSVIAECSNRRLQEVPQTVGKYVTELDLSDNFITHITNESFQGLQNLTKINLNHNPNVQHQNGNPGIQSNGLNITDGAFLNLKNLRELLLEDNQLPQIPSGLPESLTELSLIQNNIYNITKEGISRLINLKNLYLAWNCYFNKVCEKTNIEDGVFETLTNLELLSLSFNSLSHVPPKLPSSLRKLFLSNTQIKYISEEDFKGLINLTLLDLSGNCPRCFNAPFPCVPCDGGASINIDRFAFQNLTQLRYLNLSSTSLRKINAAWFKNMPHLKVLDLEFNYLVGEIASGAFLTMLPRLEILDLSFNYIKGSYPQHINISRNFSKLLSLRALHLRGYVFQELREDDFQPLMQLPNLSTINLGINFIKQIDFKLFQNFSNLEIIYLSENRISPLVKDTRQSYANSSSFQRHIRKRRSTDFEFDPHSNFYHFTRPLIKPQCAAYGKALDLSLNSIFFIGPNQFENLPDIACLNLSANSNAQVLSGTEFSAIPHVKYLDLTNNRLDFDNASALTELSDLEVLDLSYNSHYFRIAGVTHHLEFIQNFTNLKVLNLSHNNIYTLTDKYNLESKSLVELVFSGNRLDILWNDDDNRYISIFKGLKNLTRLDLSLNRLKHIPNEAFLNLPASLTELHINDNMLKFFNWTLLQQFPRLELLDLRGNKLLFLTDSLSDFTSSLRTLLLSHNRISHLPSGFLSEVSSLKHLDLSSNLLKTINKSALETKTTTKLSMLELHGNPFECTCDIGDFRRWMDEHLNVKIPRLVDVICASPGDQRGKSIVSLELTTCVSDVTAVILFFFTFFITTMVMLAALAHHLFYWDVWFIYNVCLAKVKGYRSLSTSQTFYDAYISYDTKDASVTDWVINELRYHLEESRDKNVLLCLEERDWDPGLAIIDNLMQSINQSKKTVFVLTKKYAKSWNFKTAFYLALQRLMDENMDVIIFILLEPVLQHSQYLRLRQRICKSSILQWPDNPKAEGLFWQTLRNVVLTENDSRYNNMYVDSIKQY
Outline: as §1

[1] = THP-1, IL-1β production, human, read-out: NLRP3 hILIB EC50
[2] = THP-1, read-out: NLRP3 hILIB EC50

SMILES | EC50 (THP-1 cells; [1]) [µM] | EC50 (TLR7) [µM] | EC50 (TLR8) [µM] | EC50 (THP-1 cells; [2]) [µM]
Nc1nc2cc(-c3cc[nH]n3)ccc2c2cn(CCNCc3cccnc3)nc12 [Example 110] | 13.1 | 20 to 100 | 1 to 20 | –
Nc1nc2cc(-c3cc[nH]n3)ccc2c2cn(CCNS(=O)(=O)c3ccccc3)nc12 [Example 114, N-{2-[4-amino-7-(1H-pyrazol-3-yl)-2H-pyrazolo[3,4-c]quinolin-2-yl]ethyl}benzenesulfonamide] | – | > 100 | > 100 | 4.84
Nc1nc2cc(-c3cc[nH]n3)ccc2c2cn(CCNC(=O)Nc3ccccc3)nc12 [Example 115, 3-{2-[4-amino-7-(1H-pyrazol-3-yl)-2H-pyrazolo[3,4-c]quinolin-2-yl]ethyl}-1-phenylurea] | 7.76 | > 100 | > 100 | –
CN(C)C(=O)NCCn1cc2c(n1)c(N)nc1cc(-c3cc[nH]n3)ccc12 [Example 116, 1-{2-[4-amino-7-(1H-pyrazol-3-yl)-2H-pyrazolo[3,4-c]quinolin-2-yl]ethyl}-3,3-dimethylurea] | – | > 100 | > 100 | 7.43
Nc1nc2cc(-c3cc[nH]n3)ccc2c2cn(CCNC(=O)Oc3ccccc3)nc12 [Example 117, phenyl N-{2-[4-amino-7-(1H-pyrazol-3-yl)-2H-pyrazolo[3,4-c]quinolin-2-yl]ethyl}carbamate] | – | > 100 | 20 to 100 | 0.57
CC(=O)N(C)CCn1cc2c(n1)c(N)nc1cc(-c3cc[nH]n3)ccc12 [Example 119, N-{2-[4-amino-7-(1H-pyrazol-3-yl)-2H-pyrazolo[3,4-c]quinolin-2-yl]ethyl}-N-methylacetamide] | 9.02 | > 100 | > 100 | –
CN(CCn1cc2c(n1)c(N)nc1cc(-c3cc[nH]n3)ccc12)C(=O)c1ccccc1 [Example 120, N-{2-[4-amino-7-(1H-pyrazol-3-yl)-2H-pyrazolo[3,4-c]quinolin-2-yl]ethyl}-N-methylbenzamide] | – | > 100 | 20 to 100 | 1.87
CN(CCn1cc2c(n1)c(N)nc1cc(-c3cc[nH]n3)ccc12)Cc1ccccc1 [Example 121, 2-{2-[benzyl(methyl)amino]ethyl}-7-(1H-pyrazol-3-yl)-2H-pyrazolo[3,4-c]quinolin-4-amine] | – | > 100 | > 100 | 0.85
Nc1nc2cc(-c3cc[nH]n3)ccc2c2cn(CCCNC(=O)c3ccccc3)nc12 [Example 123, N-{3-[4-amino-7-(1H-pyrazol-3-yl)-2H-pyrazolo[3,4-c]quinolin-2-yl]propyl}benzamide] | – | > 100 | > 100 | 9.02
Nc1nc2cc(-c3cc[nH]n3)ccc2c2cn(CCCNC(=O)c3ccccn3)nc12 [Example 124] | 9.76 | > 100 | > 100 | –
Nc1nc2cc(-c3cc[nH]n3)ccc2c2cn(CCCNC(=O)c3ccc(F)cn3)nc12 [Example 125] | 8.34 | > 100 | > 100 | –

Further lines, with some results ahead:

EC50 (THP-1 cells; [1]) [µM] | EC50 (TLR7) [µM] | EC50 (TLR8) [µM] | SMILES | EC50 (THP-1 cells; [2]) [µM]
0.98 | 20 to 100 | > 100 | Cc1ccccc1CNCCn1cc2c(n1)c(N)nc1cc(-c3cc[nH]n3)ccc12 [Example 105, 2-(2-{[(2-methylphenyl)methyl]amino}ethyl)-7-(1H-pyrazol-3-yl)-2H-pyrazolo[3,4-c]quinolin-4-amine] | –
1.91 | 20 to 100 | 20 to 100 | Nc1nc2cc(-c3cc[nH]n3)ccc2c2cn(CCNCc3cccc(F)c3)nc12 [Example 106] | –
2.63 | > 100 | > 100 | Nc1nc2cc(-c3cc[nH]n3)ccc2c2cn(CCNCc3ccc(Cl)cc3)nc12 [Example 107] | –
0.91 | 20 to 100 | 20 to 100 | Nc1nc2cc(-c3cc[nH]n3)ccc2c2cn(CCNCc3ccccc3)nc12 [Example 108] | –
1.78 | 20 to 100 | 20 to 100 | CC(C)NCCn1cc2c(n1)c(N)nc1cc(-c3cc[nH]n3)ccc12 [Example 109] | –
2.09 | 20 to 100 | > 100 | COc1ccc(CNCCn2cc3c(n2)c(N)nc2cc(-c4cc[nH]n4)ccc23)cc1 [Example 111] | –
2.5 | > 100 | > 100 | Nc1nc2cc(-c3cc[nH]n3)ccc2c2cn(CCNCc3ccccn3)nc12 [Example 112] | –
3.83 | 20 to 100 | > 100 | CS(=O)(=O)NCCn1cc2c(n1)c(N)nc1cc(-c3cc[nH]n3)ccc12 [Example 113, N-{2-[4-amino-7-(1H-pyrazol-3-yl)-2H-pyrazolo[3,4-c]quinolin-2-yl]ethyl}methanesulfonamide] | –
0.86 | > 100 | > 100 | CC(C)(C)OC(=O)NCCn1cc2c(n1)c(N)nc1cc(-c3cc[nH]n3)ccc12 [Example 118, tert-butyl N-{2-[4-amino-7-(1H-pyrazol-3-yl)-2H-pyrazolo[3,4-c]quinolin-2-yl]ethyl}carbamate] | –
5.99 | > 100 | > 100 | Nc1nc2cc(-c3cc[nH]n3)ccc2c2cn(CCN3CCCC3=O)nc12 [Example 122, 1-{2-[4-amino-7-(1H-pyrazol-3-yl)-2H-pyrazolo[3,4-c]quinolin-2-yl]ethyl}pyrrolidin-2-one] | –
5.34 | > 100 | > 100 | CC(=O)NCCCn1cc2c(n1)c(N)nc1cc(-c3cc[nH]n3)ccc12 [Example 126] | –
1.05 | > 100 | > 100 | CC(C)(C)OC(=O)NCCn1cc2c(n1)c(N)nc1cc(-c3cccs3)ccc12 [Example 127, tert-butyl N-{2-[4-amino-7-(thiophen-2-yl)-2H-pyrazolo[3,4-c]quinolin-2-yl]ethyl}carbamate] | –
0.36 | > 100 | > 100 | Cc1nc(C(=O)NCCn2cc3c(n2)c(N)nc2cc(-c4cccs4)ccc23)co1 [Example 128, N-{2-[4-amino-7-(thiophen-2-yl)-2H-pyrazolo[3,4-c]quinolin-2-yl]ethyl}-2-methyl-1,3-oxazole-4-carboxamide] | –
0.7 | > 100 | > 100 | Nc1nc2cc(-c3cccs3)ccc2c2cn(CCNC(=O)c3ccc(F)cn3)nc12 [Example 129] | –
0.64 | > 100 | > 100 | CC(=O)NCCn1cc2c(n1)c(N)nc1cc(-c3cccs3)ccc12 [Example 130] | –
